{
  "source": "patent US20090318295A1",
  "about": "“Solid herbicidal formulation of N-(phosphono-methyl)glycine and process for its preparation” (priority 2002, published 2009)",
  "origin": "cited, not measured here",
  "data": [
    {"molecule": "O=C(O)CNCP(=O)(O)O", "note": "[Glyphosate, N-(phosphonomethyl)glycine]", "values": [
      {"measurement": "solubility in water", "value": 12, "unit": "mg/mL"}
    ]}
  ]
}
